According to patent US4778816A, “Anti-asthmatic composition and process for preparing the same” (Wakamoto Pharmaceutical Co., Ltd., priority 1984, dated 1988):

Columns and labels:
experimental asthma = assay: Effect of preventing experimental asthma (Test Example 4); type: in vivo, guinea pig; conditions: 250 mg/kg oral; for Tidal volume-decrease rate: 60 min before causing asthma, average of seven
release of SRS-A [1] = assay: Inhibitory effect on the release of SRS-A from human lung slices (Test Example 3); type: cell-based; conditions: average of three measurements
Description: (§1) Inhibitory effect of MTB on the release of histamine and SRS-A from human lung slices
(§2) A macrographically normal portion was sampled from a human lung excised in a lung cancer operation and was passively sensitized with human atopy blood serum in a similar manner to the case of the rhesus monkey lung slices mentioned above. Thereafter the histamine and SRS-A release-inhibiting effect of the test medicines was measured in the same manner as in Test Example 1.

release of histamine [2] = assay: Inhibitory effect on the release of histamine from human lung slices (Test Example 3); type: cell-based; conditions: average of three measurements
Description: as §1, §2

release of histamine [3] = assay: Inhibitory effect on the release of histamine from guinea pig lung slices (Test Example 1); type: cell-based; conditions: for Histamine release-inhibition rate: average of three measurements
release of SRS-A [4] = assay: Inhibitory effect on the release of SRS-A from guinea pig lung slices (Test Example 1); type: cell-based; conditions: for SRS-A release-inhibition rate: average of three measurements
release of histamine [5] = assay: Inhibitory effect on the release of histamine from rhesus monkey lung slices (Test Example 2); type: cell-based; conditions: average of three measurements
Description: (§3) Inhibitory effect of MTB on the release of histamine and SRS-A from rhesus monkey lung slices
(§4) Rhesus monkey lungs were cut into slices, which were passively sensitized with human atopy blood serum.
(§5) Thereafter the test was conducted in the same manner as in Test Example 1 to compare the histamine and SRS-A release-inhibition effect of the present medicine MTB with that of the known medicine DSCG.

release of SRS-A [6] = assay: Inhibitory effect on the release of SRS-A from rhesus monkey lung slices (Test Example 2); type: cell-based; conditions: average of three measurements
Description: as §3, §4, §5

[7] = Differential thermal scanning calorimeter measurement of crystal structure; type: physicochemical; conditions: DSC 30 type, Shimadzu
Description: From this observation, it has been confirmed that the treatment with the non-aqueous solvent in the new preparation process not only increases the mixing efficiency but also brings about a change in the crystal structure itself of MTB.

Acute toxicity in mouse = assay: Acute toxicity in mouse; parameters: species or system Mouse (ddy); conditions: in vivo, read-out: Acute toxicity LD 50
Description: (§6) Animals tested were as follows.
Mouse: ddy, weight 20-23 g, 20 mice per group

[8] = Solubility of MTB original powder in water; type: physicochemical
Acute toxicity in rat = assay: Acute toxicity in rat; parameters: species or system Rat (wistar); conditions: in vivo, read-out: Acute toxicity LD 50
Description: as §6
Rat: wistar, weight 110-130 g 10 rats per group

release of histamine [9] = conditions: Japanese Journal of Pharmacology, Vol. 32, pages 689-697, 1982; cited from earlier work
Dog = assay: Acute toxicity in dog; type: in vivo, Dog (beagle); conditions: dog female, p.o.
Description: as §6
(§7) Dog: beagle, weight 8 kg, 3 dogs per group

Acute toxicity in dog = type: in vivo, Dog (beagle); conditions: in vivo, po; dog male, p.o.; read-out: Acute toxicity LD 50
Description: as §6, §7

Compound: COc1ccc(/C=C/C(=O)Nc2ccccc2C(=O)O)cc1OC [N-5', tranilast, reference compound]
- Tidal volume-decrease rate (experimental asthma; 0 min): 0%
- Tidal volume-decrease rate (experimental asthma; 1 min): 26%
- Tidal volume-decrease rate (experimental asthma; 2 min): 24%
- Tidal volume-decrease rate (experimental asthma; 3 min): 24%
- Tidal volume-decrease rate (experimental asthma; 4 min): 26%
- Tidal volume-decrease rate (experimental asthma; 5 min): 23%
- Tidal volume-decrease rate (experimental asthma; 6 min): 25%
- Tidal volume-decrease rate (experimental asthma; 8 min): 28%
- Tidal volume-decrease rate (experimental asthma; 10 min): 24%
- Tidal volume-decrease rate (experimental asthma; 15 min): 27%
- Tidal volume-decrease rate (experimental asthma; 20 min): 22%
- Tidal volume-decrease rate (experimental asthma; 30 min): 19%
- SRS-A release-inhibition rate (release of SRS-A [1]; 10^-4 g/ml): 37%
- SRS-A release-inhibition rate (release of SRS-A [1]; 10^-5 g/ml): 32%
- Histamine release-inhibition rate (release of histamine [2]; 10^-4 g/ml): 31%
- Histamine release-inhibition rate (release of histamine [2]; 10^-5 g/ml): 16%
- Histamine release-inhibition rate (release of histamine [3]; 10^-4 g/ml): 16%
- Histamine release-inhibition rate (release of histamine [3]; 10^-5 g/ml): 5%
- SRS-A release-inhibition rate (release of SRS-A [4]; 10^-4 g/ml): 54%
- SRS-A release-inhibition rate (release of SRS-A [4]; 10^-5 g/ml): 11%

Compound: O=C(O)c1cc(=O)c2c(OCC(O)COc3cccc4oc(C(=O)O)cc(=O)c34)cccc2o1 [DSCG, disodium cromoglicate, reference compound]
- Histamine release-inhibition rate (release of histamine [5]; 10^-4 g/ml): 0%
- Histamine release-inhibition rate (release of histamine [5]; 10^-5 g/ml): 0%
- SRS-A release-inhibition rate (release of SRS-A [1]; 10^-4 g/ml): 39%
- SRS-A release-inhibition rate (release of SRS-A [1]; 10^-5 g/ml): 41%
- Histamine release-inhibition rate (release of histamine [2]; 10^-4 g/ml): 18%
- Histamine release-inhibition rate (release of histamine [2]; 10^-5 g/ml): 13%
- Histamine release-inhibition rate (release of histamine [3]; 10^-4 g/ml): 2%
- Histamine release-inhibition rate (release of histamine [3]; 10^-5 g/ml): 0%
- SRS-A release-inhibition rate (release of SRS-A [4]; 10^-4 g/ml): 13%
- SRS-A release-inhibition rate (release of SRS-A [4]; 10^-5 g/ml): 9%
- SRS-A release-inhibition rate (release of SRS-A [6]; 10^-4 g/ml): 2%
- SRS-A release-inhibition rate (release of SRS-A [6]; 10^-5 g/ml): 0%

Compound: CCCCOC(=O)C(=O)Nc1cccc(-c2nnn[nH]2)c1 [MTB, 5-(3-n-butyloxalyl-aminophenyl) tetrazole]
- Tidal volume-decrease rate (experimental asthma; 0 min): 0%
- decrease in unit tidal volume compared with control and N-5' (in words) (experimental asthma): remarkably low rate of decrease in unit tidal volume
- Tidal volume-decrease rate (experimental asthma; 1 min): 17%
- Tidal volume-decrease rate (experimental asthma; 2 min): 17%
- Tidal volume-decrease rate (experimental asthma; 3 min): 21%
- Tidal volume-decrease rate (experimental asthma; 4 min): 23%
- Tidal volume-decrease rate (experimental asthma; 5 min): 21%
- Tidal volume-decrease rate (experimental asthma; 6 min): 22%
- Tidal volume-decrease rate (experimental asthma; 8 min): 21%
- Tidal volume-decrease rate (experimental asthma; 10 min): 21%
- Tidal volume-decrease rate (experimental asthma; 15 min): 14%
- Tidal volume-decrease rate (experimental asthma; 20 min): 19%
- Tidal volume-decrease rate (experimental asthma; 30 min): 15%
- Histamine release-inhibition rate (release of histamine [5]; 10^-4 g/ml): 27%
- Histamine release-inhibition rate (release of histamine [5]; 10^-5 g/ml): 2%
- Histamine release-inhibition rate (release of histamine [5]; 10^-6 g/ml): 12%
- Histamine release-inhibition rate (release of histamine [5]; 10^-7 g/ml): 0%
- SRS-A release-inhibition rate (release of SRS-A [1]; 10^-4 g/ml): 47%
- SRS-A release-inhibition rate (release of SRS-A [1]; 10^-5 g/ml): 47%
- SRS-A release-inhibition rate (release of SRS-A [1]; 10^-6 g/ml): 43%
- SRS-A release-inhibition rate (release of SRS-A [1]; 10^-7 g/ml): 31%
- SRS-A release-inhibition rate (release of SRS-A [1]; 10^-8 g/ml): 2%
- Histamine release-inhibition rate (release of histamine [2]; 10^-4 g/ml): 27%
- Histamine release-inhibition rate (release of histamine [2]; 10^-5 g/ml): 23%
- Histamine release-inhibition rate (release of histamine [2]; 10^-6 g/ml): 23%
- Histamine release-inhibition rate (release of histamine [2]; 10^-7 g/ml): 8%
- Histamine release-inhibition rate (release of histamine [2]; 10^-8 g/ml): 0%
- peak of absorption indicating the crystal structure (DSC) [7]: shows a peak of absorption indicating the crystal structure
- histamine release-inhibition rate compared with DSCG and N-5' (in words) (release of histamine [3]): remarkably high
- Histamine release-inhibition rate (release of histamine [3]; 10^-4 g/ml): 37%
- Histamine release-inhibition rate (release of histamine [3]; 10^-5 g/ml): 30%
- Histamine release-inhibition rate (release of histamine [3]; 10^-6 g/ml): 14%
- Histamine release-inhibition rate (release of histamine [3]; 10^-7 g/ml): 6%
- Histamine release-inhibition rate (release of histamine [3]; 10^-8 g/ml): 8%
- LD50 (Acute toxicity in mouse; ip, mouse female, i.p.): 1160 mg/kg
- LD50 (Acute toxicity in mouse; ip, mouse male, i.p.): 1120 mg/kg
- LD50 (Acute toxicity in mouse; iv, mouse female, i.v.): 1220 mg/kg
- LD50 (Acute toxicity in mouse; iv, mouse male, i.v.): 1130 mg/kg
- LD50 (Acute toxicity in mouse; po, mouse female, p.o.): > 4000 mg/kg
- LD50 (Acute toxicity in mouse; po, mouse male, p.o.): > 4000 mg/kg
- LD50 (Acute toxicity in mouse; sc, mouse female, s.c.): > 4000 mg/kg
- LD50 (Acute toxicity in mouse; sc, mouse male, s.c.): > 4000 mg/kg
- solubility in water (in words) [8]: practically insoluble in water
- LD50 (Acute toxicity in rat; ip, rat female, i.p.): 1430 mg/kg
- LD50 (Acute toxicity in rat; ip, rat male, i.p.): 1430 mg/kg
- LD50 (Acute toxicity in rat; iv, rat female, i.v.): 1160 mg/kg
- LD50 (Acute toxicity in rat; iv, rat male, i.v.): 1110 mg/kg
- LD50 (Acute toxicity in rat; po, rat female, p.o.): > 4000 mg/kg
- LD50 (Acute toxicity in rat; po, rat male, p.o.): > 4000 mg/kg
- LD50 (Acute toxicity in rat; sc, rat female, s.c.): > 4000 mg/kg
- LD50 (Acute toxicity in rat; sc, rat male, s.c.): > 4000 mg/kg
- SRS-A release-inhibition rate compared with DSCG and N-5' (in words) (release of SRS-A [4]): remarkably high
- SRS-A release-inhibition rate (release of SRS-A [4]; 10^-4 g/ml): 64%
- SRS-A release-inhibition rate (release of SRS-A [4]; 10^-5 g/ml): 66%
- SRS-A release-inhibition rate (release of SRS-A [4]; 10^-6 g/ml): 49%
- SRS-A release-inhibition rate (release of SRS-A [4]; 10^-7 g/ml): 28%
- SRS-A release-inhibition rate (release of SRS-A [4]; 10^-8 g/ml): 2%
- SRS-A release-inhibition rate (release of SRS-A [6]; 10^-4 g/ml): 16%
- SRS-A release-inhibition rate (release of SRS-A [6]; 10^-5 g/ml): 17%
- SRS-A release-inhibition rate (release of SRS-A [6]; 10^-6 g/ml): 18%
- SRS-A release-inhibition rate (release of SRS-A [6]; 10^-7 g/ml): 0%
- anti-allergic action (in words) (release of histamine [9]): anti-allergic action, inhibiting the release of histamine
- Acute toxicity LD 50 (Dog): > 4000 mg/kg
- LD50 (Acute toxicity in dog): > 4000 mg/kg
